Laboratory results: US20030191144A1, “Compounds, compositions and methods for modulating beta-amyloid production” (Active Pass Pharmaceuticals, Inc., priority 2001, published 2003)

Experiments:
Assay type in all cases: cell-based
[1] = test system: Aβ40 from human neuroblastoma cells (hDAT; SK-N-MC); test: Aβ40 ELISA, human neuroblastoma cells transiently transfected with APPsw; conditions: 200 μM, 24 hours
Description: Human neuroblastoma cells (hDAT; SK-N-MC stably overexpression human dopamine transporter) were routinely maintained in DMEM supplemented with sodium pyruvate (1 mM) and 10% fetal bovine serum. […] Subsequently, 48 hours post-transfection the cells were rinsed with PBS and treated with vehicle (0.1% DMSO) or 100-200 μM pirinixic acid in serum free/phenol free DMEM for 24 hours. After the pharmacological treatment, the exposure media was collected and supplemented with 10% sample treatment buffer (40 mM sodium phosphate (pH 7.4), 40 mM triethanolamine, 0.1% Triton X-100, 200 mM NaCl, 2 mM EGTA, 0.1% Sodium azide), and assayed for either Aβ40 or AP42 by a calorimetric ELISA as per the manufacturer's protocol (Biosource International Inc, California). The cells were lysed in 0.1% Triton X-100 in PBS supplemented with 5 μM Propridium Iodide (Molecular probes, Eugene, Oreg.) and incubated at 37° C. for 30 minutes prior to measuring fluorescence. Secreted Aβ40 and Aβ42 levels were standardized against propridium iodide fluorescence as a measure of total cell number. Data are expressed as a percent of control and represent the mean±SD with n=11 and statistical significance determined by ANOVA with a Tukey's post hoc test at ***p<0.001.

[2] = test system: Aβtotal from primary murine cortical neurons; test: Aβtotal immunoprecipitation, primary murine cortical neurons infected with APP695; conditions: primary murine cortical neurons infected with APP695, below 250 μM (5-50 μM)
Description: (§1) The cDNA coding for human APP695 is cloned in the Smal site of pSFV-1 as described previously (Simons et al., J. Neurosci. 16:899-908, 1996; Tienari et al., Embo. J. 15:5218-29, 1996). PSFV-1/huAPP695 constructs are linearized,with SpeI and run-off transcription using SP6 polymerase is performed to produce mRNA. The transcribed mix of APP and pSFV-helper are cotransfected into BHK cells by electroporation to yield recombinant SFV (Olkkonen et al., J. Neurosci. Res. 35:445-51, 1993). BHK cells are grown in DMEM/F12 supplemented with 5% fetal calf serum, 2 mM L-glutamine, 100 U/ml penicillin, and […] streptomycin. Twenty-four hours after transfection, the culture supernatant containing infective recombinant SFV is collected. Aliquots are snap-frozen in liquid nitrogen and stored at −70° C. until use.
All experiments are conducted on murine primary cortical neurons derived from E14 embryos according to established procedures (Annaert et al., J. Cell Biol. 147:277-294, 1999; Cupers et al., J. Cell Biol. 154:731-40, 2001; De Strooper et al., Nature 391:387-90, 1998). […]
Data are expressed as a percent of control and represent the mean±SD with n=6 and statistical significance determined by ANOVA with a Tukey's post hoc test at **p<0.01, ***p<0.001.

[3] = test system: Aβ42 from primary murine cortical neurons; test: Aβ42 sandwich ELISA, primary murine cortical neurons infected with APP695; conditions: primary murine cortical neurons infected with APP695, 5 μM, p<0.01, n=6
Description: as §1, with “use. […]” for “use.”
The levels of the longer Aβ42 peptide are quantified in both the conditioned media and cell extracts using a sandwich ELISA test (De Strooper et al., Nature 391:387-90, 1998; Vanderstichele et al., Amyloid. 7:245-58, 2000). […] Finally HRP substrate is added and the colorimetric reaction is quantitated spectrophotometrically using a Victor 2 (Wallac) equipped with a 450 nm filter. […] The Aβ42 concentrations in the samples are finally calculated based on the Aβ42 standards nonlinear regression equation and using Mathematica 4.1 software package (Wolfram Research, Champaign, Ill.). […]

Compound: Cc1cccc(Nc2cc(Cl)nc(SCC(=O)O)n2)c1C [pirinixic acid]
- effect on Aβ40 [1]: without altering Aβ40
- effect on Aβtotal [2]: no significant effect
- decrease in Aβ42 [3]: 20%
